pEC50: −log10 of the molar value.
Columns and labels:
[1] = system: CqsSPa; assay: V. harveyi bioluminescent reporter strain expressing cqsSPa; format: cell-based, Photobacterium angustum; details: for pEC50: dose-dependent bioluminescence response
[2] = system: CqsSPa^S168C; format: cell-based, Photobacterium angustum; details: Fig. S2
[3] = biological target: T1, CqsSVh (Vibrio campbellii, UniProt A7N6S2); assay: V. harveyi bioluminescent reporter strain expressing cqsSVh; format: cell-based, Vibrio harveyi
T1 sequence (A7N6S2 1-681): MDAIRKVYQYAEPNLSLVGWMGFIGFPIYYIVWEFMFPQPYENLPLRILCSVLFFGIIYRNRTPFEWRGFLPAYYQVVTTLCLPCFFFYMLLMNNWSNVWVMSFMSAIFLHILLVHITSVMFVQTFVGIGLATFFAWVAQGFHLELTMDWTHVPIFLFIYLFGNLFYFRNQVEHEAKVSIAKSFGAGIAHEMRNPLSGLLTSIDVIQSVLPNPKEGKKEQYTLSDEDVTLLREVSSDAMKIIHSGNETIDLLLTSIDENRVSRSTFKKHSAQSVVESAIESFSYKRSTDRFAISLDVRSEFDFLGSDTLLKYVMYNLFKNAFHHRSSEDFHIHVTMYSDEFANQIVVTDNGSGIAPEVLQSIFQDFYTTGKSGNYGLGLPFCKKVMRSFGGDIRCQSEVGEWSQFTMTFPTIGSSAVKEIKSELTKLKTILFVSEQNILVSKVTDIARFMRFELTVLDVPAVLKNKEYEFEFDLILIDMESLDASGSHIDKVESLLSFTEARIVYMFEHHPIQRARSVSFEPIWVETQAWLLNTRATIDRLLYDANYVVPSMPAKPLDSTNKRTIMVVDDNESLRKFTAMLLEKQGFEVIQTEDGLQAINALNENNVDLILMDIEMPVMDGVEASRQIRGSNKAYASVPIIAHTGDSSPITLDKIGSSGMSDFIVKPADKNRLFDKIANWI

[4] = biological target: CqsSVc (Vibrio cholerae serotype O1, UniProt Q9KM66); assay: V. harveyi bioluminescent reporter strain expressing cqsSVc; format: cell-based
Chain of CqsSVc (Q9KM66 whole entry, looked up): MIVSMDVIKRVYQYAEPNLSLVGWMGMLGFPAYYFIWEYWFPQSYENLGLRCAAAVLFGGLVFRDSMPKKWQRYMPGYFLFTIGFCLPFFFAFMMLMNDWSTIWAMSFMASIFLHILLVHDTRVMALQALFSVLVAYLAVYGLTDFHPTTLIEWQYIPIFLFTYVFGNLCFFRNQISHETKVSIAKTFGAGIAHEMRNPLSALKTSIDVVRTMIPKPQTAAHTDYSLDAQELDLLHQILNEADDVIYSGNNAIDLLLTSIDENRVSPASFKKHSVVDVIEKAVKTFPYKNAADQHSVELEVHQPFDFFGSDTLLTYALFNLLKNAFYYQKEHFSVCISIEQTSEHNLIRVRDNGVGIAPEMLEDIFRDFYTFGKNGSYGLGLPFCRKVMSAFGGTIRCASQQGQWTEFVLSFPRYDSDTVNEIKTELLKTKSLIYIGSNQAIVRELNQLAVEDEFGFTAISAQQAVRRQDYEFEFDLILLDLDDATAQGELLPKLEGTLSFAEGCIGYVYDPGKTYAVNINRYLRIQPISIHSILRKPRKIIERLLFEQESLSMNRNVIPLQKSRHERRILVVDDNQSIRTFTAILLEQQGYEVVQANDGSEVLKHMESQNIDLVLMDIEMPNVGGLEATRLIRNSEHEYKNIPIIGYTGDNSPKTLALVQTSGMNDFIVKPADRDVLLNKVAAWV

CCCCCCCCCC(=O)[C@@H](O)CC [C10-CAI-1, (S)-3-hydroxytridecan-4-one]
pEC50 ([1]; reporter expressing CqsSPa): 7.92 | increase in light production ([1]; reporter carrying cqsSPa, synthetic molecule at 5 μM): ~ 1000 fold | detection of CAI-1 molecules [2]: retained the ability to detect

C/C=C(\N)C(=O)CCCCCCC [Ea-C8-CAI-1, (Z)-3-aminoundec-2-en-4-one]
pEC50 [3]: 7.00 | light production ([3]; reporter carrying cqsSVh, synthetic molecule at 5 μM): produced light | response (light production) in dose-response ([1]; reporter expressing CqsSPa): modest response

C/C=C(\N)C(=O)CCCCCCCCC [Ea-C10-CAI-1]
pEC50 [4]: 6.82 | pEC50 ([1]; reporter expressing CqsSPa): 8.40 | detection of CAI-1 molecules [2]: retained the ability to detect

Reference: publication PMC3959898 (Molecular microbiology, 2014)
